Results as given in ChEMBL document CHEMBL3885881, “DrugMatrix”.

Species on record: Rattus norvegicus
Assay: DrugMatrix - Regimen: Daily Repeat
Assay type: toxicity, organism-based, Sprague-Dawley
Set-up: regimen Daily Repeat, gender Male, age 6-8 weeks
Conditions: in vivo, po, route oral GAVAGE, vehicle .5 % CMC; for BASOPHIL / EOSINOPHIL / ERYTHROCYTE COUNT / HEMATOCRIT / HEMOGLOBIN / LEUKOCYTE COUNT / LYMPHOCYTE / MEAN CORPUSCULAR HEMOGLOBIN / MEAN CORPUSCULAR HEMOGLOBIN CONCENTRATION / MEAN CORPUSCULAR VOLUME / MONOCYTE / NEUTROPHIL / PLATELET COUNT: tissue Blood; for ALANINE AMINOTRANSFERASE / ALBUMIN / ALKALINE PHOSPHATASE / ASPARTATE AMINOTRANSFERASE / BLOOD UREA NITROGEN / CHLORIDE / CHOLESTEROL / CREATINE PHOSPHOKINASE / CREATININE / GLUCOSE / PHOSPHORUS / POTASSIUM / SODIUM / TOTAL BILIRUBIN / TOTAL PROTEIN: tissue Plasma
[1] = 0 mg/kg, 72 h, dose level Control, time 3 day
[2] = 0 mg/kg, 120 h, dose level Control, time 5 day
[3] = 3 mg/kg, 72 h, dose level Low, time 3 day
[4] = 3 mg/kg, 120 h, dose level Low, time 5 day

## O=C1CCC(N2C(=O)c3ccccc3C2=O)C(=O)N1 (configuration not stated) [THALIDOMIDE]
[1]
  BASOPHIL: 1.52%
  EOSINOPHIL: 0.98%
  ERYTHROCYTE COUNT: 6.96 x10E6/uL
  HEMATOCRIT: 44.65%
  HEMOGLOBIN: 13.62 G/DL
  LEUKOCYTE COUNT: 9.83 x10E3/uL
  LYMPHOCYTE: 76.48%
  MEAN CORPUSCULAR HEMOGLOBIN: 19.57 pg
  MEAN CORPUSCULAR HEMOGLOBIN CONCENTRATION: 30.47 G/DL
  MEAN CORPUSCULAR VOLUME: 64.22 fL
  MONOCYTE: 2.13%
  NEUTROPHIL: 18.6%
  PLATELET COUNT: 1217.17 x10E3/uL
  ALANINE AMINOTRANSFERASE: 41 u/L
  ALBUMIN: 3.77 G/DL
  ALKALINE PHOSPHATASE: 411.83 u/L
  ASPARTATE AMINOTRANSFERASE: 62.83 u/L
  BLOOD UREA NITROGEN: 15.17 mg/dL
  CHLORIDE: 104.33 MEQ/L
  CHOLESTEROL: 71.17 mg/dL
  CREATINE PHOSPHOKINASE: 123.5 u/L
  CREATININE: 0.55 mg/dL
  GLUCOSE: 182.67 mg/dL
  PHOSPHORUS: 11.23 mg/dL
  POTASSIUM: 7.03 MEQ/L
  SODIUM: 148 MEQ/L
  TOTAL BILIRUBIN: 0.57 mg/dL
  TOTAL PROTEIN: 6.85 G/DL
[2]
  BASOPHIL: 1.35%
  EOSINOPHIL: 0.43%
  ERYTHROCYTE COUNT: 6.96 x10E6/uL
  HEMATOCRIT: 44.35%
  HEMOGLOBIN: 13.98 G/DL
  LEUKOCYTE COUNT: 9.45 x10E3/uL
  LYMPHOCYTE: 80.83%
  MEAN CORPUSCULAR HEMOGLOBIN: 20.1 pg
  MEAN CORPUSCULAR HEMOGLOBIN CONCENTRATION: 31.52 G/DL
  MEAN CORPUSCULAR VOLUME: 63.72 fL
  MONOCYTE: 2.37%
  NEUTROPHIL: 14.05%
  PLATELET COUNT: 1298 x10E3/uL
  ALANINE AMINOTRANSFERASE: 42.17 u/L
  ALBUMIN: 3.77 G/DL
  ALKALINE PHOSPHATASE: 419 u/L
  ASPARTATE AMINOTRANSFERASE: 66.67 u/L
  BLOOD UREA NITROGEN: 16.67 mg/dL
  CHLORIDE: 103.17 MEQ/L
  CHOLESTEROL: 66.33 mg/dL
  CREATINE PHOSPHOKINASE: 148.33 u/L
  CREATININE: 0.58 mg/dL
  GLUCOSE: 196.83 mg/dL
  PHOSPHORUS: 11.8 mg/dL
  POTASSIUM: 6.47 MEQ/L
  SODIUM: 148.33 MEQ/L
  TOTAL BILIRUBIN: 0.53 mg/dL
  TOTAL PROTEIN: 6.77 G/DL
[3]
  BASOPHIL: 1.53%
  EOSINOPHIL: 0.27%
  ERYTHROCYTE COUNT: 6.9 x10E6/uL
  HEMATOCRIT: 43.27%
  HEMOGLOBIN: 13.43 G/DL
  LEUKOCYTE COUNT: 12.1 x10E3/uL
  LYMPHOCYTE: 84.1%
  MEAN CORPUSCULAR HEMOGLOBIN: 19.47 pg
  MEAN CORPUSCULAR HEMOGLOBIN CONCENTRATION: 31.03 G/DL
  MEAN CORPUSCULAR VOLUME: 62.73 fL
  MONOCYTE: 2.13%
  NEUTROPHIL: 11.37%
  PLATELET COUNT: 1452.67 x10E3/uL
  ALANINE AMINOTRANSFERASE: 33 u/L
  ALBUMIN: 3.63 G/DL
  ALKALINE PHOSPHATASE: 276 u/L
  ASPARTATE AMINOTRANSFERASE: 53.33 u/L
  BLOOD UREA NITROGEN: 11 mg/dL
  CHLORIDE: 103 MEQ/L
  CHOLESTEROL: 57.67 mg/dL
  CREATINE PHOSPHOKINASE: 135.33 u/L
  CREATININE: 0.5 mg/dL
  GLUCOSE: 177.33 mg/dL
  PHOSPHORUS: 12.77 mg/dL
  POTASSIUM: 6.87 MEQ/L
  SODIUM: 148.67 MEQ/L
  TOTAL BILIRUBIN: 0.33 mg/dL
  TOTAL PROTEIN: 6.27 G/DL
[4]
  BASOPHIL: 2.03%
  EOSINOPHIL: 0.3%
  ERYTHROCYTE COUNT: 6.85 x10E6/uL
  HEMATOCRIT: 42.57%
  HEMOGLOBIN: 13.47 G/DL
  LEUKOCYTE COUNT: 11.43 x10E3/uL
  LYMPHOCYTE: 80.43%
  MEAN CORPUSCULAR HEMOGLOBIN: 19.63 pg
  MEAN CORPUSCULAR HEMOGLOBIN CONCENTRATION: 31.7 G/DL
  MEAN CORPUSCULAR VOLUME: 62.13 fL
  MONOCYTE: 3.03%
  NEUTROPHIL: 13.67%
  PLATELET COUNT: 1535.33 x10E3/uL
  ALANINE AMINOTRANSFERASE: 37 u/L
  ALBUMIN: 3.47 G/DL
  ALKALINE PHOSPHATASE: 320 u/L
  ASPARTATE AMINOTRANSFERASE: 57 u/L
  BLOOD UREA NITROGEN: 12 mg/dL
  CHLORIDE: 102.67 MEQ/L
  CHOLESTEROL: 62.33 mg/dL
  CREATINE PHOSPHOKINASE: 138 u/L
  CREATININE: 0.5 mg/dL
  GLUCOSE: 187.67 mg/dL
  PHOSPHORUS: 11.93 mg/dL
  POTASSIUM: 6.03 MEQ/L
  SODIUM: 146.33 MEQ/L
  TOTAL BILIRUBIN: 0.3 mg/dL
  TOTAL PROTEIN: 6.13 G/DL
